“Also recorded” adds a separate entry of the source. Read-outs that look alike come from different tables or passages of the source.

Data set [1] deals with normal human keratinocyte (NHK) cells. Nature of the data set: MTS assay evaluation of cytotoxicity. The settings on record: 48 hours treatment, up to 50 μM. The class given is cell-based. The procedure: MTS assay was used to evaluate the potential cytotoxicity of peptides against normal human keratinocytes. Briefly, 2 × 10^3 NHK cells were seeded in 96 well tissue culture plates and analysis was performed 48 hours after treatment with LLY12 and LLY13 by adding 20 μL per well of the tetrazolium salt MTS, 3-(4,5-dimethylthiazol-2-yl)-5-(3-carboxymethoxyphenyl)-2-(4-sulfophenyl)-2H-tetrazolium for 2 hours at 37° C. The 96 well plates were read on a VERSA max tunable microplate reader at 490 nm. Similar to the MTT assay, the reduction of MTS solutions to formazan reflects mitochondrial activity and cell viability by proxy.
Background: Formazan colour is commonly taken as a measure of viable cells.

Data set [2] has as its system human oral cancer cells HSC-3. Nature of the data set: Flow cytometry study of binding affinity of ligands. As to conditions: HSC-3 cells; for Kd: biotinylated peptide followed by streptavidin-PE. The procedure:
Flow cytometry was employed to compare the binging affinity of LLY12 and LLY13 [25–27]. Confluent tumor cells (80–90%) were dissociated with 0.05% trypsin-EDTA and neutralized with culture medium. After washed three times with F10 buffer, containing PBS with 10% FBS and 1 mM MnCl2 , the human oral cancer cells HSC-3 (3 × 10^5) were added with different concentration of biotinylated LLY12 and LLY13 in 50 μL F10 media for 30 minutes on ice. Then each sample was washed three times with 1 mL PBS containing 1% FBS. Samples thereafter were incubated with a 1:500 dilution of streptavidin-phycoerythrin (1 mg/mL) for 30 min on ice followed by a single wash with 1 mL of PBS containing 1% FBS. Finally, the samples in PBS were analyzed by flow cytometry and the mean fluorescence intensity (MFI) was acquired for each individual sample.
On the technique in general: In flow cytometry, cells or beads pass a laser one at a time.

Data set [3] concerns HSC-3 cells and MOK-101 cells. Nature of the data set: Peptide induced cell uptake assay (confocal). As to conditions: HSC-3 and MOK-101 cells, up to 3 hours, cytoplasm and nucleus. The class given is cell-based, human. The procedure:
Peptide induced cell uptake assay was used to investigate endocytic uptake of the targeting peptide by live OSC cells. Biotinylated LLY13 was pre-incubated (50 μM) with streptavidin-Alexa488 (1mg/mL) for 2 hours at room temperature and then at 4° C overnight to form the biotin-peptides/streptavidin-Alexa488 complex. Oral cancer cells of HSC-3 cells and MOK-101 were seeded in chamber slides at a concentration of 2.3 × 10^4 cells. After 60% confluency, biotin-peptides-streptavidin-Alexa488 complexes were added at different time intervals (30 min, one hour, two hours and three hours). By the end of experiments, 1:2000 dilution of DAPI was added to the specimens. Peptide induced endocytic uptake of cancer cells was observed under confocal laser scanning microscope.

Turning to cyclic cdG (Nle) G(Hyp) Lc [LLY12], in data set [1], the “cytotoxicity (MTS assay)” value is recorded as “no obvious cytotoxicity; also recorded: not cytotoxic”. The Kd in data set [2] (read-out: Kd value) amounted to 870 nM. Also, in data set [2] (flow cytometry), the “Bmax value (maximum binding capacity)” value is on record as 248. In addition, in data set [2] (flow cytometry, Figure 4), the “Bmax (maximum binding)” value was 248 AU. Further, in data set [3], the “cellular uptake (internalization) by live OSC cells” value was “not observed”.
As to cyclic cdGYG (Hyp) Wc [LLY13], the “cytotoxicity (MTS assay)” value in data set [1] was “no obvious cytotoxicity; also recorded: not cytotoxic”. The Kd in data set [2] (Figure 4, read-out: Kd) is 1230 nM. Moreover, in data set [2] (read-out: Kd value), the Kd was found to be 1270 nM. In data set [2] (flow cytometry), the “Bmax value (maximum binding capacity)” value is recorded as 764 and the “maximum binding capacity in comparison to LLY12” value is listed as “around 3 fold”. Besides, in data set [2] (flow cytometry, Figure 4), the “Bmax (maximum binding)” value was 764 AU.

For orientation: Kd means the equilibrium constant for the complex coming apart.

The values are drawn from publication PMC6739215, “One-bead one-compound combinatorial library derived targeting ligands for detection and treatment of oral squamous cancer” (Oncotarget, 2019).
